From patent US11649430B2 (priority 2018, dated 2023)
“Also recorded” adds a separate entry of the source.

Columns and labels:
[1] = system: A. oryzae; test: Germination assay with purified imizoquins, A. oryzae; type: cell-based, Aspergillus oryzae
Procedure: (§1) Germination Assay: Each strain was grown in triplicate in 2 mL of liquid GMM inoculated with 1×10^5 spores mL^−1 in a well of a sterile Costar® 12-well plate (Corning) and incubated at 30° C. in OKO-Lab microscopic enclosure equipped with a Nikon Eclipse Ti inverted microscope. Germinated spores were observed using a Nikon Plan Fluor 20xPh1 DLL objective and phase-contrast microscope. A spore was considered germinated when the length of the spore protrusion (emerging hyphal tip) exceeded the spore's diameter^15,33. Images were captured hourly using the Nikon NIS Elements AR software package (v. 4.13), and the germination rate was determined by counting germlings per hundred spores. The experiment was repeated three times.
(§2) Germination Assay with Purified Imizoquins. Compounds 1-2 were assessed for their effect on germination of different fungal strains. Each metabolite was dissolved in methanol at a starting concentration of 10 mg mL^−1 and stored at −80° C. Sterile Costar® 96 well plates containing 100 μL of GMM supplemented with various concentrations of purified 1-2 (0.1 mM, 0.2 mM, 0.4 mM, 0.8 mM and 1.2 mM) were inoculated at 1×10^5 spores/well. Spores treated with equivalent volumes of the carrier (methanol) served as negative controls for each experiment. The germination rate (%) was measured as above with each treatment assayed in triplicate.

[2] = system: A. flavus; test: Germination ROS assay (H2O2 plus imizoquin A); type: cell-based, Aspergillus flavus; settings: 0.7 mM H2O2, 0.1, 0.2, 0.4 mM compound
[3] = system: Penicillium expansum; test: Germination assay with purified imizoquins, Penicillium expansum; type: cell-based
Procedure: as §1, §2

[4] = system: A. fumigatus; test: Germination assay with purified imizoquins, A. fumigatus; type: cell-based, Aspergillus fumigatus
Procedure: as §1, §2

[5] = system: A. nidulans; test: Germination assay with purified imizoquins, A. nidulans; type: cell-based, Aspergillus nidulans
Procedure: as §1, §2

[6] = system: R. solanacearum; type: cell-based, Ralstonia solanacearum; settings: WT (GMI1000) strain; 0.4 mM; 24 hours
[7] = system: A. flavus; type: cell-based, Aspergillus flavus; settings: for germination rate: 0.1 mM, 0.2 mM, 0.4 mM
[8] = Antioxidant Assay (OxiSelect Total Antioxidant Capacity Assay Kit); type: biochemical; settings: 0-1 mM; compared to uric acid; absorbance 490 nm (Supporting Figure S9)
Procedure: Antioxidant Assay: ROS quenching potential of the imizoquins was analyzed using the OxiSelect™ Total Antioxidant Capacity Assay Kit (Cell Biolabs, Inc., San Diego, Calif.) following the manufacturer's instructions. Briefly, 20 μL of diluted uric acid standards (0-1 mM) and imizoquins (0-1 mM) were combined with 180 μL of 1× reaction buffer/well in a Costar® 96 well plate. After mixing thoroughly, an initial absorbance was obtained at 490 nm using a BioTek EPOCH 2 microplate reader with Gen5 acquisition software. Then 50 μL of the 1× copper ion reagent was added into each well and the plate was incubated for 5 minutes on an orbital shaker. To terminate the reaction, 50 μL of 1× stop solution was added and the final absorbance was measured again at 490 nm.

[9] = system: A. flavus spores

| SMILES | germination rate in the presence of H2O2 ([2]; WT strain) | germination rate in the presence of H2O2 ([2]; ΔimqK strain) | R. solanacearum growth (OD) [6] | germination rate [7] | antioxidant activity (ROS quenching potential) [8] | germination [7] | further results |
| --- | --- | --- | --- | --- | --- | --- | --- |
| COC1=C(O)C(=O)C2=C(C1=O)[C@H]1N[C@@H](Cc3c[nH]c4ccccc34)C(=O)N1C(C(=O)N[C@@H](CC(C)CO)C(=O)O)C2 (stereo partly shown) [Imizoquin A, imizoquin A] | counteracted the germination inhibitory activity of H2O2 | counteracted the germination inhibitory activity of H2O2 | decreases R. solanacearum growth modestly | restores germination in the ΔimqK mutant in a dose-dependent manner; also recorded: increased germination of both ΔimqK and WT to above that of untreated OE::imqK | significant antioxidant activities | – | concentration up to which the germination effect is dose-dependent ([1]; A. oryzae): about 0.4 mM; germination rate ([1]; A. oryzae (Supporting Figure S8)): increases the germination rate; germination rate in the presence of H2O2 ([2]; WT strain, listed as imizoquin A): protected spores from the germination inhibitory effects of H2O2; germination rate in the presence of H2O2 ([2]; ΔimqK strain, listed as imizoquin A): protected spores from the germination inhibitory effects of H2O2; concentration up to which the germination effect is dose-dependent [3]: about 0.4 mM; germination rate [3]: increased the germination rate; germination rate [4]: increases the germination rate; concentration up to which the germination effect is dose-dependent ([4]; A. fumigatus): about 0.4 mM; germination rate [5]: increases the germination rate; concentration up to which the germination effect is dose-dependent ([5]; A. nidulans): about 0.4 mM |
| OO [H2O2, hydrogen peroxide] | – | – | – | – | – | – | spore survival [9]: 50% |
| COC1=C(O)C(=O)C2=C(C1=O)[C@H]1N[C@@H](Cc3c[nH]c4ccccc34)C(=O)N1C(C(=O)N[C@@H](CC(CO)CO)C(=O)O)C2 (stereo partly shown) [Imizoquin B, imizoquin B] | protected spores from the germination inhibitory effects of H2O2 | protected spores from the germination inhibitory effects of H2O2 | decreases R. solanacearum growth modestly | restores germination in the ΔimqK mutant in a dose-dependent manner; also recorded: increased germination of both ΔimqK and WT to above that of untreated OE::imqK | significant antioxidant activities | – | – |
| COc1c(O)cc2c(c1O)CN(C(=O)[C@@H](N)Cc1c[nH]c3ccccc13)[C@H](C(=O)N[C@@H](CC(C)CO)C(=O)O)C2 (stereo partly shown) [TMC-2B, reference compound] | – | – | – | – | showed antioxidant properties | similarly accelerated germination | – |
| COc1c(O)cc2c(c1O)CN(C(=O)[C@@H](N)Cc1c[nH]c3ccccc13)[C@H](C(=O)N[C@@H](CC(CO)CO)C(=O)O)C2 [TMC-2A, reference compound] | – | – | – | – | showed antioxidant properties | similarly accelerated germination | – |
